Here are results for seven compounds from US5008419A, “Novel platinum complex” (SS Pharmaceutical Co., Ltd., priority 1988, dated 1991).

Data set [1] deals with L1210 leukemia cells. In words: Antitumor activity against L1210 leukemia in CDF1 mice (increase life span, survived ratio). It is filed as in vivo, CDF1 male mice. As to conditions: for ILS (increase life span) / Survived ratio: i.p., once a day for 5 days; for ILS50 (50% increase life span dose): mouse, in vivo, ip, 43200 min; for Survived ratio: 30 days observation. The procedure:
CDF1 male mice (age: 6 weeks) consisting of 6 per each group were used to the test. 1×10^5 L1210 leukemia cells were intraperitoneally inoculated into each mouse. Test compounds dissolved in a solution of 0.5% CMC-Na in physiological saline were intraperitoneally administered to mice once a day for 5 consecutive days from the next day of the inoculation. A 0.5% CMC-Na solution in physiological saline was administered to the control group. […] All of these compounds are known compounds and Comparative Compounds a-c were disclosed in U.S. Pat. No. 4,169,846.
Observation was continued for consecutive 30 days after the administration. Increase life span (ILS) was determined according to the following equation: […]
wherein T is the mean survival days of the treated groups, and C is the mean survival days of the control groups.
(§1) Therapeutic index of compounds of this invention was determined according to the following equation. [formula]

A short description of data set [2]: 50% lethal dose (LD50). As to conditions: in vivo. As to the method:
as §1

Data set [3] in a line: Water solubility. It is filed as physicochemical.

As to `CC1C(=O)[O][Pt]2([NH]C3CCCCC3[NH]2)[O]C1=O` (racemic) [Comparative Compound b, (trans-dl-1,2-diaminocyclohexane)methylmalonatoplatinum (II)], the “ILS (increase life span)” value in data set [1] (4.0 mg/kg) was 17%; in data set [1] (8.0 mg/kg), 27%; in data set [1] (16.0 mg/kg), 43%; in data set [1] (32.0 mg/kg) it was 79%. The “ILS50 (50% increase life span dose)” value in data set [1] amounted to 14.9 mg/kg. In data set [2], the “LD50 (50% lethal dose)” value was found to be 312.6 mg/kg.

For `CCC1C(=O)[O][Pt]2([NH]C3CCCCC3[NH]2)[O]C1=O` (racemic) [Comparative Compound c, (trans-dl-1,2-diaminocyclohexane)ethylmalonatoplatinum (II)], the “ILS (increase life span)” value in data set [1] (4.0 mg/kg) is 27%; in data set [1] (8.0 mg/kg) it was 31%; in data set [1] (16.0 mg/kg), 52%; in data set [1] (32.0 mg/kg), 69%. Also, the “ILS50 (50% increase life span dose)” value in data set [1] is 14.2 mg/kg. Moreover, the “LD50 (50% lethal dose)” value in data set [2] is 244.9 mg/kg.

Take `N.N.O=C([O-])C1(C(=O)[O-])CCC1.[Pt+2]` [Carboplatin]: the “ILS (increase life span)” value in data set [1] (8.0 mg/kg) was determined as 27%; in data set [1] (16.0 mg/kg), 29%; in data set [1] (32.0 mg/kg) it was 43%; in data set [1] (64.0 mg/kg) it was 70%; in data set [1] (128.0 mg/kg), 25%. In addition, the Survived ratio in data set [1] (8.0 mg/kg), in data set [1] (16.0 mg/kg), in data set [1] (32.0 mg/kg), in data set [1] (64.0 mg/kg) and in data set [1] (128.0 mg/kg) was 0% each time. In addition, the “ILS50 (50% increase life span dose)” value in data set [1] was 31.2 mg/kg. The “LD50 (50% lethal dose)” value in data set [2] was 200.0 mg/kg.

For `N.N.[Cl][Pt][Cl]` [Cisplatin], the “ILS (increase life span)” value worked out at 19% in data set [1] (0.5 mg/kg), 33% in data set [1] (1.0 mg/kg), 75% in data set [1] (2.0 mg/kg) and 88% in data set [1] (4.0 mg/kg). The “ILS50 (50% increase life span dose)” value in data set [1] was 1.3 mg/kg.

For “(trans-dl-1,2-diaminocyclohexane) diethylmalonatoplatinum (II) [Compound No. 2]”, the “ILS (increase life span)” value in data set [1] (2.0 mg/kg) is 43%; in data set [1] (4.0 mg/kg) it was 61%; in data set [1] (8.0 mg/kg) it was “above 135%”; in data set [1] (16.0 mg/kg) it was “above 124%”; in data set [1] (32.0 mg/kg), “above 168%”. Further, the Survived ratio in data set [1] (2.0 mg/kg) is 0%; in data set [1] (4.0 mg/kg), 0%; in data set [1] (8.0 mg/kg) it was 33%; in data set [1] (16.0 mg/kg), 17%; in data set [1] (32.0 mg/kg), 33%. Also, the “ILS50 (50% increase life span dose)” value in data set [1] is 2.7 mg/kg. This compound displayed a Water solubility in data set [3] of 10000 µg/mL. Further, the “LD50 (50% lethal dose)” value in data set [2] stood at 140.0 mg/kg.

“(trans-dl-1,2-diaminocyclohexane) dimethylmalonatoplatinum (II) [Compound No. 1]”: the “ILS (increase life span)” value in data set [1] (2.0 mg/kg) was 40%; in data set [1] (4.0 mg/kg), 49%; in data set [1] (8.0 mg/kg) it was “above 136%”; in data set [1] (16.0 mg/kg), 112%; in data set [1] (32.0 mg/kg), 130%. Further, the Survived ratio in data set [1] (2.0 mg/kg) is listed as 0%; in data set [1] (4.0 mg/kg) it was 0%; in data set [1] (8.0 mg/kg) it was 17%; in data set [1] (16.0 mg/kg), 0%; in data set [1] (32.0 mg/kg), 0%. Moreover, the “ILS50 (50% increase life span dose)” value in data set [1] turned out to be 3.4 mg/kg. The Water solubility in data set [3] amounted to 8000 µg/mL. Also, the “LD50 (50% lethal dose)” value in data set [2] came to 140.0 mg/kg.

For the compound “(trans-dl-1,2-diaminocyclohexane)-malonatoplatinum (II) [Comparative Compound a]”, the “ILS (increase life span)” value in data set [1] (4.0 mg/kg) was 35%; in data set [1] (8.0 mg/kg), 49%; in data set [1] (16.0 mg/kg), 82%; in data set [1] (32.0 mg/kg), 94%; in data set [1] (64.0 mg/kg), “above 108%”. The Survived ratio is given as 0% in data set [1] (4.0 mg/kg); 0% in data set [1] (8.0 mg/kg); 0% in data set [1] (16.0 mg/kg); 17% in data set [1] (32.0 mg/kg); 17% in data set [1] (64.0 mg/kg). Besides, the “ILS50 (50% increase life span dose)” value in data set [1] turned out to be 7.1 mg/kg. The compound further displayed a Water solubility in data set [3] of 500 µg/mL. In data set [2], the “LD50 (50% lethal dose)” value is reported as 244.9 mg/kg.
